# Patent US7361643B2, “Methods for inhibiting angiogenesis” (University of Puerto Rico, priority 2000, dated 2008)
# Entries after “also recorded” stand apart in the source; their conditions may differ.
# Assays:
# [1] = tested on: tunicamycin sensitive clone JMEC; test: Apoptosis and recovery in the tunicamycin sensitive cell clone; type: cell-based, bovine
# Description: To understand the precise molecular mechanism of tunicamycin induced apoptosis of capillary endothelial cells, a cell clone was isolated from the parental culture that was maintained in a serum-free media for six weeks following synchronization. The morphology of these cells and their growth profile appear quite different. For example, the shapes are more spindle-like, resembling Kaposi's Sarcoma lesions endothelial cells, as disclosed in FIORELLI et al., “Cytokines from Activated T Cells Induce Normal Endothelial Cells to Acquire the Phenotypic and Functional Features of AIDS-Kaposi's Sarcoma Spindle Cells”, J. Clin. Invest., 95:1723-1734 (1995), the disclosure of which is herein incorporated by reference in its entirety. The cells undergo two-population doubling in 2% (v/v) fetal bovine serum, differentiate in 5 days, and complete one cell cycle in approximately 56 hours (FIG. 4).
# There was no recovery after exposing the cells to 1 μg/ml-10 μg/ml tunicamycin for 72 hours or more (not all data shown).
# [2] = tested on: bovine adrenal medullary microvascular endothelial cells; test: DNA laddering by agarose gel electrophoresis; type: cell-based; conditions: DNA from cells treated with 1 μg/ml tunicamycin for 32 hours
# [3] = tested on: bovine adrenal medullary microvascular endothelial cells; test: Morphology by light microscopy and scanning electron microscopy; type: cell-based; conditions: 1 μg/ml tunicamycin, 2% (v/v) FBS
# Procedure: The synchronized population of the above described bovine capillary endothelial cells was exposed to tunicamycin (lot number 10922120-07 from Boehringer-Mannheim, Indianapolis, Ind.) with no history of protein synthesis inhibition, for different lengths of time at various concentrations, as shown, e.g., in FIG. 3, in a complete EMEM containing 2% (v/v) fetal bovine serum (FBS) (heat-inactivated) at 37° C. to evaluate the morphological changes. The cells were monitored by phase-contrast light microscopy as well as by scanning electron microscopy.
# For scanning electron microscopy, 5×10^3 cells were cultured on 13 mm round Thermanox coverslips in 12 well clusters (COSTAR) in complete EMEM. Cells were synchronized as mentioned above and cultured in EMEM containing either 2% (v/v) FBS (control), 10% (v/v) FBS or 2% (v/v) FBS plus 1 μg/ml tunicamycin. The coverslips were removed at specified times and the cells were fixed in 2.5% (v/v) glutaraldehyde for 30 minutes. The cells were washed three times (10 minutes each) with Millonigs (1961) isotonic phosphate buffer, pH 7.3, and treated with 1% (w/v) osmium tetroxide for 15 minutes. See MILLONIG, “Advantages of a Phosphate Buffer for Osmium Tetroxide Solutions in Fixation”, J. Appl. Physics, 32:1637 (1961), the disclosure of which is herein incorporated by reference in its entirety. […]
substance,measurement,setting,value
tunicamycin,concentration for apoptosis less than needed for parental cells,[1]; 10 ng/ml in clone versus parental cells,100 fold
same,cells recovered in 5 days,[1]; 10 ng/ml tunicamycin for 24 hours,approximately 60%
same,apoptosis of the sensitive clone,"[1]; 10 ng/ml tunicamycin, 32 hours",undergoes apoptosis
same,cells recovered in 5 days,[1]; 1 μg/ml tunicamycin for 48 hours,recovered similarly
same,recovery of cells,[1]; 1 μg/ml-10 μg/ml tunicamycin for 72 hours or more,no recovery
same,cells recovered,[1]; 10 μg/ml tunicamycin for 48 hours,less than 20%
same,DNA laddering,[2],appearance of laddering
same,morphology by light microscopy,[3],"cell shrinkage, loss of membrane contact with neighboring cells, apparent compaction of nuclei showing condensed pyknotic appearance and membrane fragmentation; also recorded: cell shrinkage, loss of membrane contact with neighboring cells, apparent compaction of nuclei showing condensed pyknotic appearance, and membrane fragmentation"
same,surface morphology by scanning electron microscopy,[3]; 96 hours,considerable surface blebbing; also recorded: enormous surface blebbing
